Laboratory results taken from patent US20230295109A1, “PYRIDINONE COMPOUNDS FOR THE TREATMENT OF AUTOIMMUNE DISEASE” (F. Hoffmann-La Roche AG, priority 2020, published 2023).
Where two headings read alike, the source gives them in different places.

Experiments:
hERG channel = molecular target: T1, hERG channel (Homo sapiens, UniProt Q12809); assay: hERG channel inhibition assay (patch-clamp, CHOhERG cells); type: cell-based; conditions: for IC50 / IC20: CHOhERG cells, whole-cell patch-clamp; for IC20: human, CHO cells stably expressing hERG (CHOhERG); for hERG IC20 / TLR8 IC50 / hERG IC20 / TLR9 IC50 / hERG IC20 /TLR7 IC50: safety ratio
T1 construct: expressed in transfected cells; host or cells: CHO (Chinese hamster ovary), CHOhERG
Description: The hERG K^+ channels were cloned in humans and stably expressed in a CHO (Chinese hamster ovary) cell line. CHOhERG cells were used for patch-clamp (voltage-clamp, whole-cell) experiments. Cells were stimulated by a voltage pattern to activate hERG channels and conduct IKhERG currents (rapid delayed outward rectifier potassium current of the hERG channel). After the cells were stabilized for a few minutes, the amplitude and kinetics of IKhERG were recorded at a stimulation frequency of 0.1 Hz (6 bpm). Thereafter, the test compound was added to the preparation at increasing concentrations. For each concentration, an attempt was made to reach a steady-state effect, usually, this was achieved within 3-10 min at which time the next highest concentration was applied. The amplitude and kinetics of IKhERG are recorded in each concentration of the drug which were compared to the control values (taken as 100%). (references: Redfern WS, Carlsson L, Davis AS, Lynch WG, MacKenzie I, Palethorpe S, Siegl PK, Strang I, Sullivan AT, Wallis R, Camm AJ, Hammond TG. 2003; Relationships between preclinical cardiac electrophysiology, clinical QT interval prolongation and torsade de pointes for a broad range of drugs: evidence for a provisional safety margin in drug development. Cardiovasc. Res. 58:32-45, Sanguinetti MC, Tristani-Firouzi M. 2006; hERG potassium channels and cardiac arrhythmia. Nature 440:463-469, Webster R, Leishman D, Walker D. 2002; Towards a drug concentration effect relationship for QT prolongation and torsades de pointes. Curr. Opin. Drug Discov. Devel. 5:116-26).

[1] = Single dose pharmacokinetics (PK) study in male Wister-Han rats; type: in vivo
Description: Pharmacokinetic properties of selected compounds were assessed by single dose PK studies in Male Wister-Han Rats (vendor: Beijing Vital River Laboratory Animal Technology Co., Ltd). Briefly, two groups of animals were administered a single dose of respective compound intravenously (IV, bolus) at 2 mg/kg or orally (PO, by gavage) at 10 mg/kg. Blood samples (approximately 150 µL) were collected via Jugular vein at 5 min (only for IV), 15 min, 30 min, 1 h, 2 h, 4 h, 7 h and 24 h post-dose. Blood samples were placed into tubes containing EDTA-K2 anticoagulant and centrifuged at 3000 rpm for 15 min at 4° C. to separate plasma from the samples. After centrifugation, the resulting plasma was transferred to clean tubes for bioanalysis with LC/MS/MS. The pharmacokinetic parameters were calculated using non-compartmental analysis. The volume of distribution (Vss), half-life (T½) and clearance (CL) were obtained based on the plasma concentration-time curve after IV dose. The peak concentration (Cmax) was recorded directly from experimental observations after PO dose. The area under the plasma concentration-time curve (AUC0-last) was calculated using the linear trapezoidal rule up to the last detectable concentration. The bioavailability (F) was calculated based on the dose normalized AUC0-last after IV and PO dose.
The Vss of a drug represents the degree to which a drug is distributed in body tissue rather than the plasma. Vss is directly proportional with the amount of drug distributed into tissue. A higher Vss indicates a greater amount of tissue distribution.

T1 sequence (Q12809 whole entry): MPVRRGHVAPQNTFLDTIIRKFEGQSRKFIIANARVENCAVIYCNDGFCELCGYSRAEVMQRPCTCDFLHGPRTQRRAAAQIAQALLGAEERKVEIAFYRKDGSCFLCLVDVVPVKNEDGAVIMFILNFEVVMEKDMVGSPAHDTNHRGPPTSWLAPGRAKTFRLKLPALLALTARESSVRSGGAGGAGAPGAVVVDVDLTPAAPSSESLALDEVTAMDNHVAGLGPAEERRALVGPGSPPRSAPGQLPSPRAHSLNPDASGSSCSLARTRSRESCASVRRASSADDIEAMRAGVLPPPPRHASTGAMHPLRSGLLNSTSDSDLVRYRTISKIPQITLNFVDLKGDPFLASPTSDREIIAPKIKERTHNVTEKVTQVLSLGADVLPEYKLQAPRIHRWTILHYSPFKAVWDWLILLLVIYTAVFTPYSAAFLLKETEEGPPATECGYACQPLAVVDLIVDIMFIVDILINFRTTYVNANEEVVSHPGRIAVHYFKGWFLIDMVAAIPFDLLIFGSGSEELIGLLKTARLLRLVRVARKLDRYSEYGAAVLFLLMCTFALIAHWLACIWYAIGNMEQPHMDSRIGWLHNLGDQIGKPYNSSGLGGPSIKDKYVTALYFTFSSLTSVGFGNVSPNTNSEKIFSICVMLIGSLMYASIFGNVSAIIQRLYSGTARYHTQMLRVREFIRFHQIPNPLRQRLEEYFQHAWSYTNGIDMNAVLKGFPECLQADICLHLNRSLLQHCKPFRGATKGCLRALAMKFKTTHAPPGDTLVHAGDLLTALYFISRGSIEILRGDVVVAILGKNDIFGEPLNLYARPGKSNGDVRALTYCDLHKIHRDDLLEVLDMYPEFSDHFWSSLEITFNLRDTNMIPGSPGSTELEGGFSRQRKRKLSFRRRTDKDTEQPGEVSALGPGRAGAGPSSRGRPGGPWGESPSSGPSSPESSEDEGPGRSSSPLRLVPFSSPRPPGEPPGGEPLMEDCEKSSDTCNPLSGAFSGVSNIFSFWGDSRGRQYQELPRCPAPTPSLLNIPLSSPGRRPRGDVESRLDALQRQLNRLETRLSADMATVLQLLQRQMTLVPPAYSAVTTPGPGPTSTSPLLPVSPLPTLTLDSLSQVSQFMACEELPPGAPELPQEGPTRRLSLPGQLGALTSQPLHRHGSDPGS

Cc1cc(-c2ccc(N3CCN(Cc4ccc(N5CCNCC5)cn4)CC3)nc2C(C)C)cn(C)c1=O [Example 7, 5-[2-isopropyl-6-[4-[(5-piperazin-1-yl-2-pyridyl)methyl]piperazin-1-yl]-3-pyridyl]-1,3-dimethyl-pyridin-2-one]
IC50 (hERG channel): > 20 µM | IC20 (hERG channel): 4.7 µM | hERG IC20 / TLR8 IC50 (hERG channel): 16000 | hERG IC20 / TLR9 IC50 (hERG channel): 24.4 | hERG IC20 /TLR7 IC50 (hERG channel): 940

CCc1nc(N2CCN(Cc3cnc(N4CC5(CNCCO5)C4)nc3)CC2)ccc1-c1cc(C)c(=O)n(C)c1 [Example 1, 5-[2-ethyl-6-[4-[[2-(5-oxa-2,8-diazaspiro[3.5]nonan-2-yl)pyrimidin-5-yl]methyl]piperazin-1-yl]-3-pyridyl]-1,3-dimethyl-pyridin-2-one]
IC50 (hERG channel): > 20 µM | IC20 (hERG channel): > 10 µM | hERG IC20 / TLR8 IC50 (hERG channel): >14285.2 | hERG IC20 / TLR9 IC50 (hERG channel): >14.2 | hERG IC20 /TLR7 IC50 (hERG channel): >1052.6 | F ([1]; dose normalized AUC0-last after IV 2 mg/kg and PO 10 mg/kg): 40% | AUC(0-t) ([1]; rat, IV 2 mg/kg, plasma, read-out: IV AUC0-last): 873 ng·h/mL | Cmax ([1]; rat, PO 10 mg/kg, plasma): 151 ng/mL | AUC(0-t) ([1]; rat, PO 10 mg/kg, plasma, read-out: PO AUC0-last): 1750 ng·h/mL | clearance ([1]; rat, plasma, IV 2 mg/kg): 37 mL/min/kg | half-life ([1]; rat, plasma, IV 2 mg/kg, read-out: T½ (converted)): 3.78 h | Vd ([1]; rat, plasma, IV 2 mg/kg, read-out: Vss): 7.4 L/kg

CCc1nc(N2CCN(Cc3ccc(N4CC5(CNCCO5)C4)nc3)CC2)ccc1-c1cc(C)c(=O)n(C)c1 [Example 2, 5-[2-ethyl-6-[4-[[6-(5-oxa-2,8-diazaspiro[3.5]nonan-2-yl)-3 pyridyl]methyl]piperazin-1-yl]-3-pyridyl]-1,3-dimethyl-pyridin-2-one]
IC50 (hERG channel): > 20 µM | IC20 (hERG channel): > 10 µM | hERG IC20 / TLR8 IC50 (hERG channel): >33000 | hERG IC20 / TLR9 IC50 (hERG channel): >47.1 | hERG IC20 /TLR7 IC50 (hERG channel): >961.8

CCc1nc(N2CCN(Cc3cnc(N4CC(C)(N)C4)nc3)CC2)ccc1-c1cc(C)c(=O)n(C)c1 [Example 3, 5-[6-[4-[[2-(3-amino-3-methyl-azetidin-1-yl)pyrimidin-5-yl]methyl]piperazin-1-yl]-2-ethyl-3-pyridyl]-1,3-dimethyl-pyridin-2-one]
IC50 (hERG channel): > 20 µM | IC20 (hERG channel): > 10 µM | hERG IC20 / TLR8 IC50 (hERG channel): >33000 | hERG IC20 / TLR9 IC50 (hERG channel): >31.4 | hERG IC20 /TLR7 IC50 (hERG channel): >724.6
